Test results from patent US9695155B2, “Herbicidal substituted pyrimidinyloxy benzene compounds” (E. I. DU PONT DE NEMOURS AND COMPANY, priority 2013, dated 2017).

Tests used:
pigweed [1] = experiment: Test D postemergence; assay type: in vivo, Amaranthus retroflexus; conditions: Amaranthus retroflexus, post-emergence; for pest or weed control at 16 g/ha: 16 g ai/ha, scale 0-100, read-out: Plant response rating, Pigweed; for pest or weed control at 31 g/ha: 31 g ai/ha; for pest or weed control at 62 g/ha: 62 g ai/ha; for pest or weed control at 125 g/ha: 125 g ai/ha
Summary of the method: (§1)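 Species were sown in silt loam for preemergence treatment, or grown in peat-based medium to the 1–4-leaf stage (2–18 cm) for postemergence sprays. Test chemicals were formulated in a non-phytotoxic solvent mixture with surfactant. After 7–21 days in a controlled environment, plants were rated visually against controls on a 0 (no effect) to 100 (complete control) scale.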

green foxtail = experiment: Test D preemergence; assay type: in vivo, Setaria viridis; conditions: Setaria viridis, pre-emergence; for pest or weed control at 16 g/ha: 16 g ai/ha, scale 0 (no effect) to 100 (complete control), read-out: Plant response rating, Foxtail, Green; for pest or weed control at 31 g/ha: 31 g ai/ha; for pest or weed control at 62 g/ha: 62 g ai/ha; for pest or weed control at 125 g/ha: 125 g ai/ha
Summary of the method: as §1

canarygrass = experiment: Test D preemergence; assay type: in vivo, Phalaris minor; conditions: Phalaris minor, pre-emergence; for pest or weed control at 16 g/ha: 16 g ai/ha, scale 0 (no effect) to 100 (complete control), read-out: Plant response rating, Canarygrass; for pest or weed control at 31 g/ha: 31 g ai/ha; for pest or weed control at 62 g/ha: 62 g ai/ha; for pest or weed control at 125 g/ha: 125 g ai/ha
Summary of the method: as §1

pigweed [2] = experiment: Test D preemergence; assay type: in vivo, Amaranthus retroflexus; conditions: Amaranthus retroflexus, pre-emergence; for pest or weed control at 16 g/ha: 16 g ai/ha; for pest or weed control at 16 g/ha / pest or weed control at 31 g/ha: scale 0 (no effect) to 100 (complete control), read-out: Plant response rating, Pigweed; for pest or weed control at 31 g/ha: 31 g ai/ha; for pest or weed control at 62 g/ha: 62 g ai/ha; for pest or weed control at 125 g/ha: 125 g ai/ha
Summary of the method: as §1

galium [3] = experiment: Test D postemergence; assay type: in vivo, Galium aparine; conditions: Galium, post-emergence; for pest or weed control at 16 g/ha: 16 g ai/ha, scale 0-100, read-out: Plant response rating, Galium; for pest or weed control at 31 g/ha: 31 g ai/ha; for pest or weed control at 62 g/ha: 62 g ai/ha; for pest or weed control at 125 g/ha: 125 g ai/ha
Summary of the method: as §1

speedwell = experiment: Test D preemergence; assay type: in vivo, Veronica persica; conditions: Veronica persica, pre-emergence; for pest or weed control at 16 g/ha: 16 g ai/ha
Summary of the method: as §1

wild radish = experiment: Test D preemergence; assay type: in vivo, Raphanus raphanistrum; conditions: Raphanus raphanistrum, pre-emergence; for pest or weed control at 16 g/ha: 16 g ai/ha; for pest or weed control at 16 g/ha / pest or weed control at 31 g/ha: scale 0 (no effect) to 100 (complete control), read-out: Plant response rating, Radish, Wild; for pest or weed control at 31 g/ha: 31 g ai/ha; for pest or weed control at 62 g/ha: 62 g ai/ha; for pest or weed control at 125 g/ha: 125 g ai/ha
Summary of the method: as §1

oilseed rape = experiment: Test D preemergence; assay type: in vivo, Brassica napus; conditions: Brassica napus, pre-emergence; for plant injury at 16 g/ha: 16 g ai/ha, scale 0 (no effect) to 100 (complete control), read-out: Plant response rating, Oilseed Rape; for plant injury at 31 g/ha: 31 g ai/ha; for plant injury at 62 g/ha: 62 g ai/ha; for plant injury at 125 g/ha: 125 g ai/ha
Summary of the method: as §1

field violet = experiment: Test D postemergence; assay type: in vivo, Viola arvensis; conditions: Viola arvensis, post-emergence; for pest or weed control at 16 g/ha: 16 g ai/ha, scale 0-100, read-out: Plant response rating, Field Violet; for pest or weed control at 31 g/ha: 31 g ai/ha; for pest or weed control at 62 g/ha: 62 g ai/ha; for pest or weed control at 125 g/ha: 125 g ai/ha
Summary of the method: as §1

galium [4] = experiment: Test D preemergence; assay type: in vivo, Galium aparine; conditions: Galium, pre-emergence; for pest or weed control at 16 g/ha: 16 g ai/ha, scale 0 (no effect) to 100 (complete control), read-out: Plant response rating, Galium; for pest or weed control at 31 g/ha: 31 g ai/ha; for pest or weed control at 62 g/ha: 62 g ai/ha; for pest or weed control at 125 g/ha: 125 g ai/ha
Summary of the method: as §1

chamomile = experiment: Test D preemergence; assay type: in vivo, Matricaria inodora; conditions: Tripleurospermum inodorum, pre-emergence; for pest or weed control at 16 g/ha: 16 g ai/ha, scale 0 (no effect) to 100 (complete control), read-out: Plant response rating, Chamomile; for pest or weed control at 31 g/ha: 31 g ai/ha; for pest or weed control at 125 g/ha: 125 g ai/ha
Summary of the method: as §1

[5] = scale 0 to 100 (0 no effect, 100 complete control), read-out: Plant response rating, Pigweed
[6] = scale 0-100, read-out: Plant response rating, Foxtail, Green
[7] = scale 0-100, read-out: Plant response rating, Canarygrass
[8] = scale 0-100, read-out: Plant response rating, Pigweed
[9] = scale 0 to 100 (0 no effect, 100 complete control), read-out: Plant response rating, Galium
[10] = scale 0 (no effect) to 100 (complete control), read-out: Plant response rating, Speedwell
[11] = scale 0-100, read-out: Plant response rating, Radish, Wild
[12] = scale 0-100, read-out: Plant response rating, Oilseed Rape
[13] = scale 0 to 100 (0 no effect, 100 complete control), read-out: Plant response rating, Field Violet
[14] = scale 0-100, read-out: Plant response rating, Galium
[15] = scale 0-100, read-out: Plant response rating, Chamomile

## FC(F)(F)c1cnn(-c2ccccc2Oc2ncc(Br)cn2)c1 [Compound 18, 5-bromo-2-[2-[4-(trifluoromethyl)-1H-pyrazol-1-yl]phenoxy]pyrimidine]
Pigweed [1]
  pest or weed control at 16 g/ha: 65%
Pigweed [1]; [5]
  pest or weed control at 31 g/ha: 75%
  pest or weed control at 62 g/ha: 75%
  pest or weed control at 125 g/ha: 95%
Pigweed [1]; 250 g ai/ha, scale 0 to 100 (0 no effect, 100 complete control), read-out: Plant response rating, Pigweed
  pest or weed control at 250 g/ha: 95%
Green foxtail
  pest or weed control at 16 g/ha: 5%
Green foxtail; [6]
  pest or weed control at 31 g/ha: 15%
  pest or weed control at 62 g/ha: 50%
  pest or weed control at 125 g/ha: 95%
Green foxtail; 250 g ai/ha, scale 0-100, read-out: Plant response rating, Foxtail, Green
  pest or weed control at 250 g/ha: 100%
canarygrass
  pest or weed control at 16 g/ha: 10%
canarygrass; [7]
  pest or weed control at 31 g/ha: 25%
  pest or weed control at 62 g/ha: 65%
  pest or weed control at 125 g/ha: 100%
canarygrass; 250 g ai/ha, scale 0-100, read-out: Plant response rating, Canarygrass
  pest or weed control at 250 g/ha: 100%
Pigweed [2]
  pest or weed control at 16 g/ha: 30%
  pest or weed control at 31 g/ha: 100%
Pigweed [2]; [8]
  pest or weed control at 62 g/ha: 100%
  pest or weed control at 125 g/ha: 100%
Pigweed [2]; 250 g ai/ha, scale 0-100, read-out: Plant response rating, Pigweed
  pest or weed control at 250 g/ha: 100%
Galium [3]
  pest or weed control at 16 g/ha: 40%
Galium [3]; [9]
  pest or weed control at 31 g/ha: 60%
  pest or weed control at 62 g/ha: 70%
  pest or weed control at 125 g/ha: 65%
Galium [3]; 250 g ai/ha, scale 0 to 100 (0 no effect, 100 complete control), read-out: Plant response rating, Galium
  pest or weed control at 250 g/ha: 70%
speedwell; [10]
  pest or weed control at 16 g/ha: 50%
Wild radish
  pest or weed control at 16 g/ha: 100%
  pest or weed control at 31 g/ha: 100%
Wild radish; [11]
  pest or weed control at 62 g/ha: 100%
  pest or weed control at 125 g/ha: 100%
Wild radish; 250 g ai/ha, scale 0-100, read-out: Plant response rating, Radish, Wild
  pest or weed control at 250 g/ha: 100%
Oilseed rape
  plant injury at 16 g/ha: 40%
Oilseed rape; [12]
  plant injury at 31 g/ha: 30%
  plant injury at 62 g/ha: 100%
  plant injury at 125 g/ha: 100%
Oilseed rape; 250 g ai/ha, scale 0-100, read-out: Plant response rating, Oilseed Rape
  plant injury at 250 g/ha: 100%
Field violet
  pest or weed control at 16 g/ha: 55%
Field violet; [13]
  pest or weed control at 31 g/ha: 80%
  pest or weed control at 62 g/ha: 65%
  pest or weed control at 125 g/ha: 80%
Field violet; 250 g ai/ha, scale 0 to 100 (0 no effect, 100 complete control), read-out: Plant response rating, Field Violet
  pest or weed control at 250 g/ha: 90%
Galium [4]
  pest or weed control at 16 g/ha: 0%
Galium [4]; [14]
  pest or weed control at 31 g/ha: 15%
  pest or weed control at 62 g/ha: 80%
  pest or weed control at 125 g/ha: 100%
Galium [4]; 250 g ai/ha, scale 0-100, read-out: Plant response rating, Galium
  pest or weed control at 250 g/ha: 100%
chamomile
  pest or weed control at 16 g/ha: 5%
chamomile; [15]
  pest or weed control at 31 g/ha: 5%
  pest or weed control at 125 g/ha: 50%
chamomile; 250 g ai/ha, scale 0-100, read-out: Plant response rating, Chamomile
  pest or weed control at 250 g/ha: 55%

## FC(F)(F)c1cn(-c2ccccc2Oc2ncc(Cl)cn2)nn1 [Compound 166, 5-chloro-2-[2-[4-(trifluoromethyl)-1H-1,2,3-triazol-1-yl]phenoxy]pyrimidine]
Pigweed [1]
  pest or weed control at 16 g/ha: 80%
Pigweed [1]; [5]
  pest or weed control at 31 g/ha: 85%
  pest or weed control at 62 g/ha: 95%
  pest or weed control at 125 g/ha: 95%
Green foxtail
  pest or weed control at 16 g/ha: 25%
Green foxtail; [6]
  pest or weed control at 31 g/ha: 65%
  pest or weed control at 62 g/ha: 100%
  pest or weed control at 125 g/ha: 100%
canarygrass
  pest or weed control at 16 g/ha: 30%
canarygrass; [7]
  pest or weed control at 31 g/ha: 50%
  pest or weed control at 62 g/ha: 70%
  pest or weed control at 125 g/ha: 100%
Pigweed [2]
  pest or weed control at 16 g/ha: 100%
  pest or weed control at 31 g/ha: 100%
Pigweed [2]; [8]
  pest or weed control at 62 g/ha: 100%
  pest or weed control at 125 g/ha: 100%
Galium [3]
  pest or weed control at 16 g/ha: 70%
Galium [3]; [9]
  pest or weed control at 31 g/ha: 75%
  pest or weed control at 62 g/ha: 80%
  pest or weed control at 125 g/ha: 90%
speedwell; [10]
  pest or weed control at 16 g/ha: 100%
speedwell; 31 g ai/ha, scale 0 (no effect) to 100 (complete control), read-out: Plant response rating, Speedwell
  pest or weed control at 31 g/ha: 100%
speedwell; 62 g ai/ha, scale 0-100, read-out: Plant response rating, Speedwell
  pest or weed control at 62 g/ha: 100%
speedwell; 125 g ai/ha, scale 0-100, read-out: Plant response rating, Speedwell
  pest or weed control at 125 g/ha: 100%
Wild radish
  pest or weed control at 16 g/ha: 55%
  pest or weed control at 31 g/ha: 80%
Wild radish; [11]
  pest or weed control at 62 g/ha: 100%
  pest or weed control at 125 g/ha: 100%
Oilseed rape
  plant injury at 16 g/ha: 35%
Oilseed rape; [12]
  plant injury at 31 g/ha: 50%
  plant injury at 62 g/ha: 100%
  plant injury at 125 g/ha: 100%
Field violet
  pest or weed control at 16 g/ha: 60%
Field violet; [13]
  pest or weed control at 31 g/ha: 65%
  pest or weed control at 62 g/ha: 70%
  pest or weed control at 125 g/ha: 85%
Galium [4]
  pest or weed control at 16 g/ha: 65%
Galium [4]; [14]
  pest or weed control at 31 g/ha: 80%
  pest or weed control at 62 g/ha: 100%
  pest or weed control at 125 g/ha: 100%
chamomile
  pest or weed control at 16 g/ha: 5%
chamomile; [15]
  pest or weed control at 31 g/ha: 25%
  pest or weed control at 125 g/ha: 55%
chamomile; 62 g ai/ha, scale 0-100, read-out: Plant response rating, Chamomile
  pest or weed control at 62 g/ha: 50%
